In patent publication US20030119719A1, “Use of endothelin conjugates in therapy, new endothelin conjugates, agents that contain the latter, and process for their production” (priority 1996, published 2003):

What was measured:
[1] = test system: common carotid artery; test: Local application via administration catheter in the denuded common carotid artery, dynamic scintigraphy and autoradiography; details: for course of the locally administered activity at the administration site after blood flow is restored: examination period of 1 hour, dynamic scintigrams, right common carotid artery
Source text: b) Local Application of the Tc-99m Complex of NH2-Asp-Gly-Gly-Cys-Gly-Cys-Phe-(D-Trp)-Leu-Asp-Ile-Ile-Trp-OH as well as Tc-99m-pertechnetate in the Common Carotid Artery of White New Zealand Rabbits
In anesthetized white New Zealand rabbits (3.5 kg), the right common carotid artery was opened up. A 2 F balloon catheter (from the Baxter Company) was inserted cranially through a cut, and a vascular area approximately 5 cm long was denuded twice with 0.9% saline after the catheter was inflated. Then, an administration catheter (coronary perfusion/infusion catheter, dispatch 3.0, Baxter Company) was fed to the above-denuded area. […] Then, the catheter was removed, and the blood flow after closure of the common carotid artery dextra was restored using a suture. Dynamic scintigrams were prepared over a period of 1 hour with the aid of a commercial gamma camera. Then, the animals were sacrificed, both carotids were removed, and an autoradiography was prepared.

[2] = test system: arteriosclerotic plaque; test: In vivo and in vitro concentration in WHHL rabbits (gamma camera imaging, autoradiography of the aorta); details: 2 mCi (1 ml) via an ear vein
Description: In Vivo and In Vitro Concentration of the ^99mTc-Complex of […] in WHHL Rabbits 2 mCi (1 ml) of the […]Tc-complex that is produced according to 5a) is administered to an anesthetized WHHL rabbit (Rompun/Ketavet 1:2) via an ear vein. WHHL rabbits have a high LDL level in the blood because of a deficient or defective LDL receptor and therefore create spontaneously arteriosclerotic vascular alterations. During the test period of 5 hours after the administration, static images of various exposure times and of various positions were produced with a gamma camera ([…]). 5 hours after the administration, the rabbit was sacrificed, and both an autoradiography of the aorta and a Sudan III coloring were carried out.

Row | Compound | site of accumulation after being flushed from the vessel wall ([1]; anterior summation scintigram 0-1 hour after local administration (FIG. 1)) | course of the locally administered activity at the administration site after blood flow is restored [1] | course of the locally administered activity at the administration site after blood flow is restored ([1]; listed as Tc-99m-pertechnetate) | time at which arteriosclerotic plaque in the area of the aortic arch could be visualized in vivo [2] [minutes p.i.]
1 | [O]=[99Tc](=[O])(=[O])[O-] [Tc-99m pertechnetate] | accumulates in the salivary glands as well as the thyroid | flushed from the vessel directly after the blood flow was regenerated | flushed from the vessel wall immediately after the blood flow is restored | 
2 | ^99mTc Complex of Asp-Gly-Gly-Cys-Gly-Cys-Phe-(D-Trp)-Leu-Asp-Ile-Ile-Trp |  |  |  | 10
